SMILES strings stand for the structures.

For the experiment, the target named is T1, Recombinant autotaxin (Homo sapiens, UniProt Q13822).
T1 construct: made in house; host or cells: Hi5 insect cells (baculovirus)
Briefly: Autotaxin assay (Amplex Red, LPC substrate). The experiment is classed as biochemical. Particulars: recombinant autotaxin, LPC substrate, Amplex Red detection; values given as upper bounds. In outline: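 Recombinant autotaxin (Hi5 baculovirus, 16 ng) pre-incubated with compound 30 min at 22° C, then reacted with 75 μM egg LPC for 90 min at 37° C. Choline released is coupled to H2O2 and Amplex Red fluorescence (ex 485/em 612 nm). IC50 from ten 1:3 dilutions from 30 μM, duplicates, normalised to 500 μM C14 LPA.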
As to `O=C(OC1(c2cc(C(F)(F)F)cc(C(F)(F)F)c2)CC1)N1CCN(C2CCN(C(=O)c3ccc4[nH]nnc4c3)CC2)CC1` [Compound 178, 4-[1-(1H-Benzotriazole-5-carbonyl)-piperidin-4-yl]-piperazine-1-carboxylic acid 1-(3,5-bis-trifluoromethyl-phenyl)-cyclopropyl ester], the IC50 was below 1 µM.
The same measure for `O=C(c1ccc2[nH]nnc2c1)N1CCC(N2CCN(C(=O)C3CC3c3ccc(Cl)cc3)CC2)CC1` (stereo not drawn) [Compound 179, (1H-Benzoriazol-5-yl)-(4-{4-[2-(4-chloro-phenyl)-cyclopropanecarbonyl]-piperazin-1-yl}-piperidin-1-yl)-methanone]: below 10 µM; for `O=C(CN1CCC(N2CCN(C(=O)c3ccc4[nH]nnc4c3)CC2)CC1)Nc1cc(C(F)(F)F)cc(C(F)(F)F)c1` [Compound 180, 2-{4-[4-(1H-Benzotriazole-5-carbonyl)-piperazin-1-yl]-piperidin-1-yl}-N-(3,5-bis-trifluoromethyl-phenyl)-acetamide]: below 10 µM.
The same measure for `COc1ccc(Cl)cc1NC(=O)CN1CCC(N2CCN(C(=O)c3ccc4[nH]nnc4c3)CC2)CC1` [Compound 181, 2-{4-[4-(1H-Benzotriazole-5-carbonyl)-piperazin-1-yl]-piperidin-1-yl}-N-(5-chloro-2-methoxy-phenyl)-acetamide]: below 10 µM.
The same measure for `CN(C1CCN(C(=O)OCc2ccc(C(F)(F)F)cc2)CC1)C1CCN(C(=O)c2ccc3[nH]nnc3c2)C1` (stereo not drawn) [Compound 182, 4-{[1-(1H-Benzotriazole-5-carbonyl)-pyrrolidin-3-yl]-methyl-amino}-piperidine-1-carboxylic acid 4-trifluoromethyl-benzyl ester]: below 10 µM; for `O=C(OCc1cc(Cl)cc(C(F)(F)F)c1)N1CCN(C2CCN(S(=O)(=O)c3ccc4[nH]c(=O)oc4c3)CC2)CC1` [Compound 183, 4-[1-(2-Oxo-2,3-dihydro-benzooxazole-6-sulfonyl)-piperidin-4-yl]-piperazine-1-carboxylic acid 3-chloro-5-trifluoromethyl-benzyl ester]: below 10 µM.
Take `O=C(OCc1cc(C(F)(F)F)cc(C(F)(F)F)c1)N1CCN(C2CCN(C(=O)c3ccc4[nH]nnc4c3)CC2)C(=O)C1` [Compound 184, 4-[1-(1H-Benzotriazole-5-carbonyl)-piperidin-4-yl]-3-oxo-piperazine-1-carboxylic acid 3,5-bis-trifluoromethyl-benzyl ester]: the IC50 is below 1 µM.
Regarding `O=C(NC1CCC(N2CCN(C(=O)OCc3ccccc3)CC2)CC1)c1ccc2[nH]nnc2c1` (stereo not drawn) [Compound 185, 4-{4-[(1H-Benzotriazole-5-carbonyl)-amino]-cyclohexyl}-piperazine-1-carboxylic acid benzyl ester], the IC50 is below 30 µM.
For `O=C(NC1CCC(N2CCN(C(=O)OCc3cc(C(F)(F)F)cc(C(F)(F)F)c3)CC2)CC1)c1ccc2[nH]nnc2c1` (stereo not drawn) [Compound 186, 4-{4-[(1H-Benzotriazole-5-carbonyl)-amino]-cyclohexyl}-piperazine-1-carboxylic acid 3,5-bis-trifluoromethyl-benzyl ester], the IC50 was below 1 µM.
The same measure for `O=C(NC1CCC(N2CCN(C(=O)OCc3cc(Cl)cc(C(F)(F)F)c3)CC2)CC1)c1ccc2[nH]nnc2c1` (stereo not drawn) [Compound 187, 4-{4-[(1H-Benzotriazole-5-carbonyl)-amino]-cyclohexyl}-piperazine-1-carboxylic acid 3-chloro-5-trifluoromethyl-benzyl ester]: below 1 µM; for `O=C(NC1CCC(N2CCN(C(=O)OCc3ccc(SC(F)(F)F)cc3)CC2)CC1)c1ccc2[nH]nnc2c1` (stereo not drawn) [Compound 188, 4-{4-[(1H-Benzotriazole-5-carbonyl)-amino]-cyclohexyl}-piperazine-1-carboxylic acid 4-trifluoromethylsulfanyl-benzyl ester]: below 10 µM.
The same measure for `O=C(NC1CCC(N2CCN(C(=O)OCc3ccc(C(F)(F)F)c(F)c3)CC2)CC1)c1ccc2[nH]nnc2c1` (stereo not drawn) [Compound 189, 4-{4-[(1H-Benzotriazole-5-carbonyl)-amino]-cyclohexyl}-piperazine-1-carboxylic acid 3-fluoro-4-trifluoromethyl-benzyl ester]: below 10 µM.
